Where two headings read alike, the source gives them in different places. One block for each molecule: values may come before it.
Key:
[1] = pKa of substituents on the phenyl ring, measured for unblocked phenylmercaptotetrazole compounds; assay type: physicochemical; details: substituent on phenyl ring of unblocked phenylmercaptotetrazole
From the text: Table I lists the pKa of various substituents on the phenyl ring as measured for unblocked phenylmercaptotetrazole compounds.

[2] = Solubility product of the silver salt; assay type: physicochemical; details: for Effect of pH / ionization on solubility of the silver salt: pH 7 vs pH 13.5
[3] = Solubility of the silver salts in the presence of excess amounts of their anions; assay type: physicochemical; details: for Solubility of silver salt (total silver): 4×10^-3 molar in silver
Method: The solubilities of the silver salts of PMT and compound VIII in the presence of excess amounts of their anions were measured at pH 7.0 and 13.5. Each solution was 4×10^-3 molar in silver. The results are shown in Table III wherein the solubility data is expressed in μ moles/liter of total silver.

[4] = pH 7; Z.C.H. Tan, Photogr. Sci. Eng. 19, 17 (1975); cited from earlier work
[5] = Molar ratio Compound/Ag 1.25/1, pH 7.0
[6] = Molar ratio Compound/Ag 1.25/1, pH 13.5
[7] = Molar ratio Compound/Ag 1.75/1, pH 7.0
[8] = Molar ratio Compound/Ag 1.75/1, pH 13.5
[9] = Molar ratio Compound/Ag 2.13/1, pH 7.0
[10] = Molar ratio Compound/Ag 2.13/1, pH 13.5
[11] = Molar ratio Compound/Ag 2.5/1, pH 7.0
[12] = Molar ratio Compound/Ag 2.5/1, pH 13.5
[13] = Molar ratio Compound/Ag 4.5/1, pH 7.0
[14] = Molar ratio Compound/Ag 4.5/1, pH 13.5
[15] = Molar ratio Compound/Ag 7.5/1, pH 7.0
[16] = Molar ratio Compound/Ag 7.5/1, pH 13.5

Compound: O=S(=O)(Nc1ccccc1)c1ccc(-n2nnnc2S)cc1
pKa [1]: 9.55 ± 0.1

Compound: Cc1ccc(S(=O)(=O)Nc2ccc(-n3nnnc3S)cc2)cc1
pKa [1]: 8.8 ± 0.1

Compound: CS(=O)(=O)Nc1ccc(-n2nnnc2S)cc1 [(p) NHSO2 CH3]
pKa [1]: 8.65 ± 0.1

Compound: NS(=O)(=O)c1ccc(-n2nnnc2S)cc1 [(p) SO2 NH2, 1-(4-sulfonamidophenyl)-5-mercaptotetrazole]
pKa [1]: 9.95 ± 0.1

Compound: CNS(=O)(=O)c1ccc(-n2nnnc2S)cc1 [(p) SO2 NHCH3]
pKa [1]: 11.55 ± 0.1

Further lines, with some results ahead:

pKa [1]: 9.5 ± 0.1
Compound: Oc1ccccc1-n1nnnc1S [(o) OH]

pKa [1]: 10.1 ± 0.1
Compound: Oc1ccc(-n2nnnc2S)cc1 [(p) OH, 1-(4-hydroxyphenyl)-5-mercaptotetrazole]

Ksp of silver salt ([2]; pH 7): ~ 1 × 10^-16
Ksp of silver salt ([2]; pH 13.5): 2 × 10^-15
Solubility of silver salt (total silver) [3, 5]: < 1 μ moles/liter
Solubility of silver salt (total silver) [3, 6]: 19 μ moles/liter
Solubility of silver salt (total silver) [3, 7]: < 1 μ moles/liter
Solubility of silver salt (total silver) [3, 8]: 44 μ moles/liter
Solubility of silver salt (total silver) [3, 9]: < 1 μ moles/liter
Solubility of silver salt (total silver) [3, 10]: 93 μ moles/liter
Solubility of silver salt (total silver) [3, 11]: 2 μ moles/liter
Solubility of silver salt (total silver) [3, 12]: 140 μ moles/liter
Solubility of silver salt (total silver) [3, 13]: 2 μ moles/liter
Solubility of silver salt (total silver) [3, 14]: 320 μ moles/liter
Solubility of silver salt (total silver) [3, 15]: 5 μ moles/liter
Solubility of silver salt (total silver) [3, 16]: 1400 μ moles/liter
Silver solvent action ([3]; high pH): weak to moderate silver solvent
Compound: CC(=NO)c1ccc(-n2nnnc2S)cc1 [IX]
Effect of pH / ionization on solubility of the silver salt [2]: increased the solubility of the silver salt of the compound VIII by an order of magnitude
Solubility of silver salt compared with PMT ([3]; neutral solution): even less soluble salt in neutral solution than does PMT

Effect of pH / ionization on solubility of the silver salt [2]: relatively unaffected by pH
Ksp of silver salt ([2]; pH 13.5): 4 × 10^-16
Solubility of silver salt (total silver) [3, 5]: < 1 μ moles/liter
Solubility of silver salt (total silver) [3, 6]: 1 μ moles/liter
Solubility of silver salt (total silver) [3, 7]: < 1 μ moles/liter
Solubility of silver salt (total silver) [3, 8]: 2 μ moles/liter
Solubility of silver salt (total silver) [3, 9]: 1 μ moles/liter
Solubility of silver salt (total silver) [3, 10]: 4 μ moles/liter
Solubility of silver salt (total silver) [3, 11]: 3 μ moles/liter
Solubility of silver salt (total silver) [3, 12]: 8 μ moles/liter
Solubility of silver salt (total silver) [3, 13]: 15 μ moles/liter
Solubility of silver salt (total silver) [3, 14]: 18 μ moles/liter
Solubility of silver salt (total silver) [3, 15]: 58 μ moles/liter
Solubility of silver salt (total silver) [3, 16]: 63 μ moles/liter
Compound: Sc1nnnn1-c1ccccc1 [PMT, 1-phenyl-5-mercaptotetrazole]
Ksp of silver salt [4]: ~3 × 10^-16

pKa [1]: 11.4
Compound: CC(=NO)c1ccc(-n2nnnc2S)cc1 [drawing 14]

— patent publication US4355101A, “Phenylmercaptoazole compounds” (Polaroid Corporation, priority 1981, dated 1982)
